The values below come from patent publication US8962527B2, “Process for preparation of herbicidal salts” (Nufarm Australia Limited, priority 2010, dated 2015).

Series [1] is described as follows: pH of 3% solution of the finished product in H2O. Conditions: 3% solution in H2O. The series is classed as physicochemical. How it is done:
The reaction was monitored by addition of small amounts of reaction mixture to water. When the mixture provides a pH of 8 and remains at this pH the reaction was considered complete. The product was filtered and dried at temperature not greater than 60° C. The mother liquor is made up with fresh MTBE, ready for the next batch.

Series [2] in a line: Hygroscopicity of the finished product. The series is classed as physicochemical. The following applies: dried solid product.

For `CNC.Cc1cc(Cl)ccc1OCC(=O)O` [Example 1, MCPA/DMA Salt], the pH in series [1] is reported as 5.5-6.5. The “hygroscopicity of product” value in series [2] is on record as “extremely hydroscopic”.

Regarding `CNC.COc1c(Cl)ccc(Cl)c1C(=O)O` [Example 2, Dicamba/DMA Salt], in series [1], the pH is recorded as 5.5-6.5. In addition, the “hygroscopicity of product” value in series [2] is on record as “extremely hydroscopic”.

As to `CC(Oc1ccc(Cl)cc1Cl)C(=O)O.CNC` (centres unmarked) [Example 4, 2,4-DP/DMA Salt], in series [1], the pH was 5.8-6.5. Moreover, the “hygroscopicity of product” value in series [2] is recorded as “not hydroscopic”.

Regarding `CNC.Cc1cc(Cl)ccc1OC(C)C(=O)O` (centres unmarked) [Example 3, MCPP/DMA Salt], the pH in series [1] is 5.8-6.3. The “hygroscopicity of product” value in series [2] is reported as “extremely hydroscopic”.
